Experimental findings from patent US20040048195A1, “Heat-sensitive lithographic printing plate precursor” (AGFA-GEVAERT, priority 2002, published 2004) are described below.

Molecules are shown by their SMILES. Read-outs that look alike come from different tables or passages of the source.

What all share (format): physicochemical
Series [1] in a line: Solubility of the IR-dyes (supersaturated solution, filtration, spectrophotometric determination). Particulars: for solubility: thermodynamic from solid. Here is the method: The solubility of the IR-dyes IR-1 to −5 and of a comparison dye Cl (commercially available from FEW Chemicals GmbH) was determined as follows:
the extinction coefficient of the dyes was measured in methanol with a HP8453 UV/VIS/NIR spectrophotometer;
a supersaturated solution of the dyes in a) 2-methoxyl-propanol (MOP) and b) water/NaOH (pH=9) was prepared; after filtration the concentration of dissolved dye was determined by dissolution with methanol using the previous determined extinction coefficient. [drawing 8]

Series [2] is described as follows: Test of inhibiting capability of the dyes: dissolution time of unexposed novolac/dye coating in Agfa EP26 developer. Particulars: dye 35 mg/m^2 in 0.9 g/m^2 novolac, Agfa EP26 developer at 20° C., reference without dye 30 sec. Here is the method:
A layer of novolac (Alnovol SPN452 from Clariant, a 40.5 wt. % solution in methoxypropanol) and the dyes specified in Table 2 were coated on the above support. After drying during 1 min at 130° C., the samples contained 0.9 g/m^2 of novolac. A series of unexposed samples is immersed in Agfa EP26 developer at 20° C., each sample during a different time period. After the immersion period, the sample was removed from the developer, immediately rinsed with water, dried and then the dissolution of the coating in the developer was measured by comparing the weight of the sample before and after the development. As soon as the coating is dissolved completely, no more weight loss is measured upon longer immersion time periods, i.e. a curve representing weight loss as a function of immersion time reaches a plateau from the moment of complete dissolution of the layer, which is referred to herein as “dissolution time”. When the dissolution time of the sample containing the IR dye is longer than the dissolution time of the sample without the IR dye, then the IR dye clearly acts as an inhibitor.

Series [3] can be described thus: Solubility of the IR-dyes (supersaturated solution, filtration, spectrophotometric determination). Particulars: water/NaOH, pH 11.7, aqueous buffer, thermodynamic from solid, insoluble at pH = 9; NaOH was added until pH = 11.7; read-out: Solubility in H2O/NaOH.

Take `CC1(C)C(/C=C/C2=C(Sc3ccccc3C(=O)O)C(=C/C=C3/N(CCCCS(=O)(=O)[O-])c4ccccc4C3(C)C)/CCC2)=[N+](CCCCS(=O)(=O)[O-])c2ccccc21.[K+]` [IR-dye 1]: in series [1] (2-methoxyl-propanol (MOP)), the “Solubility in MOP” value worked out at 3.8 mg/mL. Further, the “Solubility in H2O/NaOH at pH = 9” value in series [1] (water/NaOH, pH = 9) was 40.1 g/l. Moreover, the Dissolution time in series [2] (listed as IR-1) stood at 30 s.
Turning to `CC1(C)C(/C=C/C2=C(Sc3ccccc3C(=O)O)C(=C/C=C3/N(CCCCS(=O)(=O)[O-])c4ccccc4C3(C)C)/CCC2)=[N+](CCCCS(=O)(=O)[O-])c2ccccc21.[K+]` [IR-dye 4], the “Solubility in MOP” value in series [1] (2-methoxyl-propanol (MOP)) is 5.7 mg/mL. Moreover, the “Solubility in H2O/NaOH at pH = 9” value in series [1] (water/NaOH, pH = 9) is given as more than 50 g/l. Moreover, the Dissolution time in series [2] (listed as IR-4) amounted to 20 s.
As to `CC1(C)C(/C=C/C2=C(Sc3ccccc3C(=O)O)C(=C/C=C3/N(CCCCS(=O)(=O)[O-])c4ccccc4C3(C)C)/CCC2)=[N+](CCCCS(=O)(=O)[O-])c2ccccc21.[K+]` [IR-dye 2], the “Solubility in MOP” value in series [1] (2-methoxyl-propanol (MOP)) is 0.42 mg/mL. Further, the “Solubility in H2O/NaOH at pH = 9” value in series [1] (water/NaOH, pH = 9) is recorded as more than 50 g/l. The same compound showed a Dissolution time in series [2] (listed as IR-2) of 20 s.
On to `CN1/C(=C/C=C2\CCCC(/C=C/C3=[N+](C)c4ccc5ccccc5c4C3(C)C)=C2Cl)C(C)(C)c2c1ccc1ccccc21` [Comparison, reference compound], for which the solubility was 50.1 mg/mL in series [1] (2-methoxyl-propanol (MOP), organic solvent or mixture, 2-methoxyl-propanol (MOP), read-out: Solubility in MOP) and less than 0.002 mg/mL in series [3]. For the same compound, the Dissolution time in series [2] was 60 s.
`CC1(C)C(/C=C/C2=C(Sc3ccccc3C(=O)O)C(=C/C=C3/N(CCCCS(=O)(=O)[O-])c4ccccc4C3(C)C)/CCC2)=[N+](CCCCS(=O)(=O)[O-])c2ccccc21.[K+]` [IR-dye 3]: the “Solubility in MOP” value in series [1] (2-methoxyl-propanol (MOP)) is more than 100 mg/mL. In addition, the “Solubility in H2O/NaOH at pH = 9” value in series [1] (water/NaOH, pH = 9) was more than 50 g/l. Besides, the Dissolution time in series [2] (listed as IR-3) worked out at 30 s.
Take `CC1(C)C(/C=C/C2=C(Sc3ccccc3C(=O)O)C(=C/C=C3/N(CCCCS(=O)(=O)[O-])c4ccccc4C3(C)C)/CCC2)=[N+](CCCCS(=O)(=O)[O-])c2ccccc21.[K+]` [IR-dye 5]: the solubility in series [1] (2-methoxyl-propanol (MOP) with tri-ethylamine, organic solvent or mixture, 2-methoxyl-propanol (MOP), tri-ethylamine was added to dissolve the dye, read-out: Solubility in MOP) was 91.3 mg/mL; in series [1] (water/NaOH, pH 9, aqueous buffer, water/NaOH, pH = 9, read-out: Solubility in H2O/NaOH at pH = 9) it was more than 50 mg/mL. This compound also registered a Dissolution time in series [2] (listed as IR-5) of 25 s.
